Patent publication US20020133846A1, “Method for protecting plants” (priority 1996, published 2002)
Like-named read-outs stand apart in the source and are kept apart here.

What was measured:
[1] = test system: Peronospora parasitica NoCo2; experiment: whole plant or invertebrate; format: in vivo
[2] = test system: Peronospora parasitica isolate Emwa; experiment: Action against Peronospora parasitica in Arabidopsis overexpressing NIM1 (lines 6E, 7C) and wild-type Ws; format: in vivo
Source text: The plant lines used in this example (6E and 7C) were generated from transformation of wild-type Arabidopsis thaliana plants (ecotype Ws) with the BamHI-HindIII NIM1 genomic fragment (SEQ ID NO:1—bases 1249-5655), as described above in Example 21. The fungicides metalaxyl, fosetyl, and copper hydroxide, formulated as 25%, 80%, and 70% active ingredient (ai), respectively, with a wettable powder carrier, were applied as fine mist to leaves of three week-old transgenic Ws plants constitutively expressing the NIM1 gene. The wettable powder alone was applied as a control. Three days later, plants were inoculated with a Peronospora parasitica isolate Emwa conidial suspension (1-2×10^5 spores/ml), as described in Delaney et al. (1995). Following inoculation, plants were covered to maintain high humidity and were placed in a Percival growth chamber at 17° C. with a 14-hr day/10-hr night cycle (Uknes et al., 1993). Tissue was harvested 8 days after inoculation.
Fungal infection progression was followed for 12 days by viewing under a dissecting microscope to score development of conidiophores (Delaney, et al. (1994); Dietrich, et al. (1994)). Lactophenoltrypan blue staining of individual leaves was carried out to observe fungal growth within leaf tissue. Fungal growth was quantified using a rRNA fungal probe obtained by PCR according to White et al. (1990; PCR Protocols: A guide to Methods and Application, 315-322) using primers NS1 and NS2 and P. parasitica EmWa DNA as templates. RNA was purified from frozen tissue by phenol/chloroform extraction following lithium chloride precipitation (Lagrimini et al, 1987: PNAS, 84: 7542-7546). Samples (7.5 μg) were separated by electrophoresis through formaldehyde agarose gels and blotted to nylon membranes (Hybond-N+, Amersham) as described by Ausbel et al. (1987). Hybridizations and washing were according to Church and Gilbert (1984, PNAS, 81: 1991-1995). Relative amounts of the transcript were determined using a Phosphor Imager (Molecular Dynamics, Sunnyvale, Calif.) following manufacturers instructions. Sample loading was normalized by probing stripped filter blots with the constitutively expressed b-tubulin Arabidopsis cDNA.

[3] = Cu(OH)2 0.02 g/l, NIM1 overexpression line 6E
[4] = Cu(OH)2 0.02 g/l, NIM1 overexpression line 7C
[5] = Cu(OH)2 0.2 g/l, NIM1 overexpression line 6E
[6] = Cu(OH)2 0.2 g/l, NIM1 overexpression line 7C
[7] = Cu(OH)2 2.0 g/l, NIM1 overexpression line 6E
[8] = Cu(OH)2 2.0 g/l, NIM1 overexpression line 7C

Compound: CSC(=O)c1cccc2nnsc12 [BTH]
- inhibition at 10 µM ([1]; Hyaloperonospora parasitica, in Arabidopsis thaliana, read-out: Fungal Growth Inhibition % O (observed), Table 34, cim3 mutant, BTH 0.01 mM): 16.6%
- inhibition at 30 µM ([1]; Hyaloperonospora parasitica, in Arabidopsis thaliana, read-out: Fungal Growth Inhibition % O (observed), Table 34, cim3 mutant, BTH 0.03 mM): 73.1%
- Synergy Factor O/E ([1]; Table 34, cim3 mutation + BTH 0.01 mM): 1.3
- Synergy Factor O/E ([1]; Table 34, cim3 mutation + BTH 0.03 mM): 2.2

Compound: COCC(=O)N(c1c(C)cccc1C)C(C)C(=O)OC (racemic) [metalaxyl]
- inhibition at 0.02 µg/mL ([1]; Hyaloperonospora parasitica, in Arabidopsis thaliana, read-out: Fungal Growth Inhibition % O (observed), Table 33, cim3 mutant, metalaxyl 0.02 mg/l): 55.6%
- inhibition at 0.1 µg/mL ([1]; Hyaloperonospora parasitica, in Arabidopsis thaliana, read-out: Fungal Growth Inhibition % O (observed), Table 33, cim3 mutant, metalaxyl 0.1 mg/l): 57.8%
- inhibition at 2.5 µg/mL ([1]; Hyaloperonospora parasitica, in Arabidopsis thaliana, read-out: Fungal Growth Inhibition % O (observed), Table 33, cim3 mutant, metalaxyl 2.5 mg/l): 82.2%
- Synergy Factor O/E ([1]; Table 33, cim3 mutation + metalaxyl 0.1 mg/l): 4.6
- Synergy Factor O/E ([1]; Table 33, cim3 mutation + metalaxyl 2.5 mg/l): 6.6
- inhibition at 1.2 µg/mL ([2]; Hyaloperonospora parasitica, in Arabidopsis thaliana, Table 36, NIM1 overexpression line 6E, metalaxyl 0.0012 g/l, read-out: Fungal Growth Inhibition % O (observed)): 56%
- inhibition at 12.5 µg/mL ([2]; Hyaloperonospora parasitica, in Arabidopsis thaliana, Table 36, NIM1 overexpression line 6E, metalaxyl 0.0125 g/l, read-out: Fungal Growth Inhibition % O (observed)): 76%
- Synergy Factor O/E ([2]; Table 36, NIM1 overexpression line 6E + metalaxyl 0.0012 g/l): 1.5
- Synergy Factor O/E ([2]; Table 36, NIM1 overexpression line 6E + metalaxyl 0.0125 g/l): 1.1

Compound: [Cu+2].[OH-].[OH-] [Cu(OH)2, copper hydroxide]
- Fungal Growth Inhibition % O (observed) [2, 3]: 20%
- Synergy Factor O/E [2, 3]: 2.0
- Fungal Growth Inhibition % O (observed) [2, 4]: 55%
- Synergy Factor O/E [2, 4]: 3.9
- Fungal Growth Inhibition % O (observed) [2, 5]: 14%
- Synergy Factor O/E [2, 5]: 1.4
- Fungal Growth Inhibition % O (observed) [2, 6]: 51%
- Synergy Factor O/E [2, 6]: 3.6
- Fungal Growth Inhibition % O (observed) [2, 7]: 66%
- Synergy Factor O/E [2, 7]: 6.6
- Fungal Growth Inhibition % O (observed) [2, 8]: 77%
- Synergy Factor O/E [2, 8]: 5.5
- synergy factor ([2]; NIM1 overexpression line 7C + copper hydroxide 2.0 g/l): 5.5
- fungal growth inhibition (observed) ([2]; NIM1 overexpression line 7C, copper hydroxide 2.0 g/l): 77%

Compound: CCO[PH](=O)O [fosetyl, ethyl hydrogen phosphonate]
- inhibition at 50 µg/mL ([2]; Hyaloperonospora parasitica, in Arabidopsis thaliana, Table 37, NIM1 overexpression line 6E, fosetyl 0.05 g/l, read-out: Fungal Growth Inhibition % O (observed)): 42%
- inhibition at 500 µg/mL ([2]; Hyaloperonospora parasitica, in Arabidopsis thaliana, Table 37, NIM1 overexpression line 6E, fosetyl 0.5 g/l, read-out: Fungal Growth Inhibition % O (observed)): 83%
- inhibition at 500 µg/mL ([2]; Hyaloperonospora parasitica, in Arabidopsis thaliana, fosetyl 0.5 g/l, NIM1 overexpression line 7C, read-out: Fungal Growth Inhibition % O (observed)): 56%
- inhibition at 5000 µg/mL ([2]; Hyaloperonospora parasitica, in Arabidopsis thaliana, read-out: Fungal Growth Inhibition % O (observed), Table 37, NIM1 overexpression line 6E, fosetyl 5.0 g/l): 93%
- inhibition at 5000 µg/mL ([2]; Hyaloperonospora parasitica, in Arabidopsis thaliana, read-out: Fungal Growth Inhibition % O (observed), fosetyl 5.0 g/l, NIM1 overexpression line 7C): 80%
- Synergy Factor O/E ([2]; Table 37, NIM1 overexpression line 6E + fosetyl 0.05 g/l): 4.2
- Synergy Factor O/E ([2]; Table 37, NIM1 overexpression line 6E + fosetyl 0.5 g/l): 6.9
- Synergy Factor O/E ([2]; Table 37, NIM1 overexpression line 6E + fosetyl 5.0 g/l): 5.5
- Synergy Factor O/E ([2]; fosetyl 0.5 g/l, NIM1 overexpression line 7C): 3.5
- Synergy Factor O/E ([2]; fosetyl 5.0 g/l, NIM1 overexpression line 7C): 3.8
